Reference: patent US6488909B1, “Chelating agents as well as their tricarbonyl complexes with technetium and rhenium” (Schering Aktiengesellschaft, priority 1998, dated 2002)

What was measured:
[1] = Stability study: histidine challenge, radiochemical composition by HPLC on RP18 column; assay type: physicochemical; details: stirred 1 hour at 50° C.
Procedure: (§1) The complexes are stable, so that at room temperature, no exchange of chelating agents for histidine is carried out. The. chelates and tricarbonyl-Tc-99m and Re-tricarbonyl complexes that are described in this invention are thus clearly better suited for diagnostic and therapeutic purposes than the previously known systems. A special advantage of the compounds according to the invention consists in the fact that their syntheses can be directed without using sulfur protective groups. This makes their synthesis very simple, and in addition, such compounds that are described according to the invention in particular offer the advantage that after radiochemical labeling, no further foreign molecules are contained in the solutions that are to be administered intravenously for radiodiagnosis or radiotherapy. Such foreign molecules frequently disrupt the biodistribution of the radiopharmaceutical agent and can adversely affect the diagnostic information content of the SPECT imaging. In addition, the labelings on such ligands or their coupling products can be performed on substances that accumulate selectively on diseased tissues under very mild conditions. […]

[2] = Incubation of the Tc-99m-tricarbonyl complex in serum; assay type: in vitro ADME; details: 26 hours of incubation in serum
Procedure: as §1

Substance: Tc-99m-Tricarbonyl Complex of {2-(1H-pyrazol1-yl)-ethylimino}-diacetic Acid-monopropylamide [Example 7b]
- radiochemical composition (HPLC chromatogram) after histidine challenge ([1]; 20 mg of histidine): unchanged

Substance: Tc-99m-Tricarbonyl complex of N-(hydroxycarboxy-methyl)-N-(N′-propyl-carbamido-methyl)-S-ethyl-2-mercaptoethylamine [Example 2b]
- decomposition products after incubation in serum [2]: no decomposition products
- radiochemical composition (HPLC chromatogram) after histidine challenge ([1]; 10 mg of histidine): unchanged
